Usually IC50 stands for the concentration at which inhibition is half-maximal. A lower IC50 goes with greater potency. One may read the inhibition as the share of the control response that was lost under treatment.

Where “and” joins values, the source holds several entries; their conditions need not be identical. Identical values can stand only once. Like-named read-outs stand apart in the source and are kept apart here.

We go through 6 compounds from patent US20260327211A1, “MODULATORS OF A POTASSIUM CHANNEL AND OF TRPV1 CHANNEL AND USES THEREOF” (Bsense Bio Therapeutics Ltd., priority 2023, published 2026).

The target in one data set is T1, hTRPV1 (Homo sapiens, UniProt Q8NER1).
T1 construct: CDS of NM_080704.4, inserted into the multiple cloning site of pcDNA3.1(+); host or cells: CHO/hKv7.2/3
T1 sequence (Q8NER1 whole entry): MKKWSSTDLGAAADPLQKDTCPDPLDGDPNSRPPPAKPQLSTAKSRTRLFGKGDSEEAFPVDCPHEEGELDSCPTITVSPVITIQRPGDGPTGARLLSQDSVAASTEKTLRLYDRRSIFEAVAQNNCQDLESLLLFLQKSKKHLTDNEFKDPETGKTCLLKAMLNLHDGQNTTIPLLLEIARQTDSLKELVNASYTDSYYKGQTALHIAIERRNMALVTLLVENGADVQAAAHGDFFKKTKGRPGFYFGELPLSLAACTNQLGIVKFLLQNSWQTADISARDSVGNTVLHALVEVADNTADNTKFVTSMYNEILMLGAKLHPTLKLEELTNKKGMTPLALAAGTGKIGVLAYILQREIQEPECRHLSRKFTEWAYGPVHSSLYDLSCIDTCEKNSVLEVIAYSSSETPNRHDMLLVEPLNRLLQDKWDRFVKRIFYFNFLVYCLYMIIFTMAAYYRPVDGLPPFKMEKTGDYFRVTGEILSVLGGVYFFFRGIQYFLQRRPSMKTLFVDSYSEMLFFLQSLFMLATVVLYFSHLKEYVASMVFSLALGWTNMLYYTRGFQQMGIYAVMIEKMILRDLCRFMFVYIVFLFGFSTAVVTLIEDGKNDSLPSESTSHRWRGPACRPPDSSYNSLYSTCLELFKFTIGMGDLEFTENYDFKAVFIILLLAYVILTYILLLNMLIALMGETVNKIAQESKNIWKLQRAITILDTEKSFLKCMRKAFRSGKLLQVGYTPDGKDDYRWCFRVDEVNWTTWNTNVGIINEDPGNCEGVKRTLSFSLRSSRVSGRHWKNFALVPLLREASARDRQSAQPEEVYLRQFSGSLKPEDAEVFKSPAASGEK
As to the kind of experiment: hTRPV1 dual activity electrophysiology, CHO cells co-expressing hKv7.2/3 and hTRPV1. It counts as cell-based.

Another data set deals with CYP3A4. As to the kind of experiment: CYP inhibition / time-dependent inhibition, CYP3A4_Midazolam. To be noted: for TDI related reactive metabolite: Table 11. The data set is classed as in vitro ADME, human. How it is done:
The time-dependent inactivation potency of the test compound to CYP enzymatic activities was assessed by the pre-incubation of the human liver microsomes with the test compound in the presence and absence of NADPH, followed by the incubation with the discrete marker substrates, as follows.
Pre-incubation with human liver microsomes (HLMs): The TDI inactivation potency on CYP enzymatic activities was evaluated through pre-incubation with HLMs (Corning). A liver microsome mixture at a concentration of 0.1 mg/mL, and the test compound at 8 different concentrations (0, 0.05, 0.165, 0.5, 1.65, 5.0, 16.5, or 50.0 μM) was warmed at 37° C. for 10 minutes. Concurrently, a set of known time-dependent inactivators was also prepared in duplicate for comparison. Following this, NADPH (1.0 mM) was added to one group (Group 1), and an equal volume of potassium phosphate buffer to the second group (Group 2), marking the beginning of a 30-minute pre-incubation at 37° C.
Incubation: After pre-incubation, the marker substrate, or marker substrate plus NADPH was added to the mixture, thereby initiating the incubation. The duration of the incubation was dependent on the type of CYP isoform being evaluated. For example, with the CYP3A isoform, the mixture was incubated over 3 minutes utilizing midazolam as the marker substrate (2.0 μM), verapamil as the standard inactivator (3.5 μM).
Termination of Reaction: Following the incubation, ice-cooled acetonitrile containing the internal standard (IS) was added to halt the reactions. Metabolites generated from the marker substrates were then measured via LC-MS/MS, assessed based on peak area ratios of the analyte to IS.

Another data set can be described thus: Rat pharmacokinetics. The data set is classed as in vivo. To be noted: for clearance: read-out: PK: Cl; for bioavailability: po, 10 mg/kg; for half-life: read-out: PK: T1/2 (converted). How it is done:
The pharmacokinetic (PK) properties of test compound following single intravenous (IV) bolus and oral gavage (PO) administration in male Sprague-Dawley (SD) rats were determined in this study.
Test compound administration: Six male Sprague Dawley (SD) rats were divided into two designated groups, Group 1 and Group 2, each composed of three rat subjects. Group 1 animals were subjected to a single intravenous bolus administration of the test compound at a dosage of 1 mg/kg. Group 2 animals were administered with the test compound orally in a single dose, at a concentration of 10 mg/kg. Throughout the study, the animals had unhindered access to food. The test compound was administered at a concentration of 0.5 mg/mL and dose volume of 2 mL/kg for Group 1, and at a concentration of 1 mg/mL and dose volume of 10 mL/kg, for Group 2.
Sample extraction and analysis: Plasma samples were systematically collected at varying time points of 0.083 (only for Group 1), 0.25, 0.5, 1, 2, 4-, 6-, 8-, and 24-hours post-dose. LC-MS/MS was used to determine the test compound's concentration within the collected plasma samples. Data reflecting plasma concentration in correlation to time were graphically represented and subjected to a non-compartmental analysis using the Phoenix WinNonlin 6.3 software program. The resulting pharmacokinetic parameters, including Clearance (Cl), Volume of distribution at steady state (Vdss) and initial concentration (C0) for intravenous administration; peak concentration (Cmax), time of peak concentration (Tmax), and bioavailability (% F) for extravascular administration; and half-life (T1/2), Area Under Curve from time zero to time t (AUC(0-t)), Area Under Curve from time zero to infinity (AUC(0-inf)), Mean Residence Time from time zero to time t (MRT(0-t)), Mean Residence Time from time zero to infinity (MRT(0-inf)) for all routes, were systematically calculated.

The mark [1] stands for this setting: Dual hTRPV1 / Dual Expressing CHO, CAP IC50, Kv7.2/3 co-expressed and activated, capsaicin.
The mark [2] stands for this setting: rat, plasma, read-out: PK: Oral BA.

In the case of `O=C(Cc1cc(-n2cc(Cl)c3cc(Cl)cc(Cl)c32)ccc1F)NCCO` [Compound 627], the 50% inhibitory concentration (IC50) against hTRPV1 (setting [1]) is 0.26 nM and 0.27 nM. In the data set on CYP3A4, the “TDI related reactive metabolite” value is on record as “Yes”. Moreover, the clearance in “Rat pharmacokinetics” (rat, plasma, iv, 1 mg/kg) was determined as 65.8 mL/min/kg. In addition, in the data set “Rat pharmacokinetics” (setting [2]), the bioavailability turned out to be 25.3%. For the same compound, in “Rat pharmacokinetics” (rat, plasma), the half-life is 1.48 h.

As to `O=C(Cc1cc(-n2cc(C(F)(F)F)c3cc(Cl)cc(Cl)c32)ncn1)NCCO` [Compound 843], the IC50 on hTRPV1 (setting [1]) was 0.528 nM. In addition, the clearance in the data set “Rat pharmacokinetics” (rat, plasma, iv, 1 mg/kg) amounted to 6.6 mL/min/kg. Also, the bioavailability in the data set “Rat pharmacokinetics” (setting [2]) is 73.4%.

Compound `O=C(Cc1ccnc(-n2cc(Cl)c3cc(Cl)cc(Cl)c32)n1)N[C@@H]1COC[C@H]1O` [Compound 820] yielded a half-inhibitory concentration (IC50) against hTRPV1 (setting [1]) of 48 nM. For the same compound, in the data set on CYP3A4 (role: inhibitor, substrate midazolam 2.0 μM, CYP TDI ratio), the “CYP-TDI (midazolam), (−)NADPH/(+)NADPH Ratio CYP3A4” value is under 0.9.

As for `O=C(Cc1nccc(-n2cc(Cl)c3cc(Cl)cc(Cl)c32)n1)NC1COCC1O` (stereo not drawn) [Compound 760], at hTRPV1 (CHO, read-out: hTRPV1 current inhibition), the inhibition at 100 µM was 46 ± 13.7%. Also, the 50% inhibitory concentration (IC50) on hTRPV1 (setting [1]) was 0.201 nM; at hTRPV1 (IC50 of hTRPV1 current inhibition in CHOs with both targets co-expressed and activated, EP), about 0.1 nM. The “TDI related reactive metabolite” value in the data set on CYP3A4 is recorded as “No”. Further, the “CYP inhibition / TDI, all CYPs of Table 9” value in the data set on CYP3A4 (role: inhibitor, up to 20 micromolar) is recorded as “did not show significant CYP inhibition or time-dependent inhibition (TDI)”. The clearance in “Rat pharmacokinetics” (rat, plasma, iv, 1 mg/kg) turned out to be 60.1 mL/min/kg. The Vd in the data set “Rat pharmacokinetics” (rat, plasma, iv, 1 mg/kg, read-out: Volume of distribution at steady state (Vdss)) stood at 2.37 L/kg. In the data set “Rat pharmacokinetics” (rat, plasma, read-out: Oral bioavailability), the bioavailability was 48.6%. In addition, the half-life in “Rat pharmacokinetics” (rat, plasma) was 2.68 h.

`Cc1cn(-c2ccc(F)c(CC(=O)NCC(C)(C)O)c2)c2c(Cl)cc(Cl)cc12` [Compound 421]: the “TDI related reactive metabolite” value with CYP3A4 is listed as “Yes”. For the same compound, in the data set “Rat pharmacokinetics” (rat, plasma, iv, 1 mg/kg), the clearance stood at 38.5 mL/min/kg. In addition, in “Rat pharmacokinetics” (setting [2]), the bioavailability came out at 10.6%.

Take `O=C(Cc1cncc(-n2cc(Cl)c3cc(Cl)cc(Cl)c32)c1)N[C@@H]1COC[C@H]1O` [Compound 661]: the “TRPV1 inhibition, dual-expressing CHO” value on hTRPV1 (0.01 nM) was “mild inhibition”; at hTRPV1 (0.1 nM), “inhibited”. Besides, on hTRPV1 (setting [1]), the IC50 was 0.07 nM and 0.068 nM. At hTRPV1 (cho cells), the “Potency in dual-expressing CHO vs CHO expressing only TRPV1” value is > 200,000 fold. The “TDI related reactive metabolite” value with CYP3A4 is on record as “Yes”. Moreover, in “Rat pharmacokinetics” (10 mg/kg oral), the “Multiple of free plasma exposure over IC50 (rat DRG)” value was determined as 30 fold. In addition, the “Free plasma exposure, fu plasma C8 hour” value in the data set “Rat pharmacokinetics” (10 mg/kg oral, 8 hours) amounted to 0.09 nM. In addition, the “Dose from which efficacious levels are expected” value in the data set “Rat pharmacokinetics” (oral, extrapolated from 10 mg/kg) is given as 2 mg/kg. In addition, the clearance in the data set “Rat pharmacokinetics” (rat, plasma, iv, 1 mg/kg) worked out at 35.7 mL/min/kg. Also, the bioavailability in “Rat pharmacokinetics” (setting [2]) was 28.8%. The half-life in the data set “Rat pharmacokinetics” (rat, plasma) was 2.49 h.
